We go through 6 molecules from patent publication US5942493A, “LH-RH antagonists having improved action” (ASTA Medica Aktiengesellschaft, priority 1995, dated 1999).

Read-outs that look alike come from different tables or passages of the source. *1 amine or outer side, *2 acyl side, *3 side chain or, on linkers, in order; H or OH if unused. Where a SMILES comes first, the peptide text is derived from it. Side-chain parts run from the residue outwards. [ ]: non-standard residue; d: D form. The star is where a group is joined. NH(4-amidinophenyl) = N=C(N)c1ccc(N*)cc1; dPhe(4-Cl) = N[C@H](Cc1ccc(Cl)cc1)C(=O)O; d2Nal = N[C@H](Cc1ccc2ccccc2c1)C(=O)O; dCit = NC(=O)NCCC[C@@H](N)C(=O)O; d3Pal = N[C@H](Cc1cccnc1)C(=O)O; Suc = O=C(CCC(=O)[*:2])[*:1]

A word on the Kd: it is the free concentration of one partner at which half of the binding sites on the other are occupied at equilibrium, for simple one-to-one binding. By IC50 is commonly meant the concentration that gives 50% inhibition.

In series [1] the test system is histamine release. The experiment in a line: Histamine release in vitro.
Series [2] has as its target T1, human LH-RH receptor (Homo sapiens, UniProt P30968).
T1 construct: expressed in transfected cells
T1 sequence (P30968 1-328): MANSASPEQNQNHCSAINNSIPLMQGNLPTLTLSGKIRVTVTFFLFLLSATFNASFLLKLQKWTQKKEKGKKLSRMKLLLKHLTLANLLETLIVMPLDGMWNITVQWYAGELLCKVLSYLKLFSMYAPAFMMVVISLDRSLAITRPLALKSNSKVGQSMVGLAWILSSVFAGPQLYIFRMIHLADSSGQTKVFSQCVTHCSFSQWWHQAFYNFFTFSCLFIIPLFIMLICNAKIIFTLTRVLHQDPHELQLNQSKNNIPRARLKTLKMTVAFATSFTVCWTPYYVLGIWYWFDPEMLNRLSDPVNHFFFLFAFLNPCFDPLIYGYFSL
The experiment in a line: Competitive binding test (displacement of [125I] Cetrorelix) on cell clone L3.5/78. The protocol: Method for the determination of the binding affinity (dissociation constant Kd):
The binding affinity was determined by a competitive binding test ("displacement binding experiment"; Beckers et al. Eur. J. Biochem. 231, 535-543, 1995). The radiolabelled ligand used is [^125 I] Cetrorelix (specific activity 5-10×10^5 dpm/pmol; dissolved in 20% v:v acetonitrile, 0.2% w:v albumin, 0.1% w:v TFA, ~80% v:v aqua). The binding ability of the iodinated peptide is between 60% and 85%. The non-labelled test compounds used are Cetrorelix, Example 1, Example 2 and […] in solution. The substances are employed in concentrations of 0.01 nM-1000 nM (Cetrorelix, Example 1, Example 2) or 0.01 μM-10 μM (Example 56).
The cells of the individual cell clone L3.5/78 verexpressing the human LH-RH receptor which are used for the binding test are removed with PBS/EDTA (PBS without Ca^2+ /Mg^2+ /1 mM EDTA) from a cell culture dish grown under non-confluent conditions, the cell count is determined and the cells are resuspended in incubation medium (Dulbecco's modified Eagle Medium with 4.5 g/l glucose, 10 mM Hepes pH 7.5, 0.5% w:v BSA, 1 g/l bacitracin, 0.1 g/l SBTI, 0.1% w:v NaN3) at a corresponding cell density. 200 μl of silicone/paraffin oil mixture (84/16% by volume) are initially introduced into special 400 μl reaction vessels (Renner, Beckman type) and 50 μl of the cell suspension (2.5×10^5 cells) are pipetted onto it. 50 μl of binding medium containing [^125 I] Cetrorelix and the compound to be tested at the appropriate concentration are added to the cell suspension on the silicone/paraffin oil layer. The mixture is then incubated with rotation for 60 min at 37° C. in a warm cabinet. After this step, it is centrifuged at 9000 rpm (room temperature) for 2 min in the Heraeus Biofuge 15 in the HTA 13.8 rotor. In the course of this, the cells pelletize through the silicone/paraffin oil layer and are thus separated from the binding medium. After centrifugation, the reaction vessels are shock-frozen in liquid N2 and the tip of the reaction vessel (cell pellet) is cut off with a pair of pincers and the tip containing the cell pellet (bound ligand [^125 I] Cetrorelix) and the supernatant (unbound, free ligand [^125 I] Cetrorelix) are transferred to counting tubes. To determine the maximum binding (Bo), no competitor is added. For the determination of non-specific binding, 1 μM unlabelled Cetrorelix is added for competition. At ≤10% of the total binding Bo, the non-specific binding is low. Quantification is carried out in a γ-counter; analysis is carried out using the EBDA/ligand V3.0 programme (McPherson, J. Pharmacol. Methods 14, 213-228, 1985). Plotting in the dose-response graph makes possible the estimation of the IC50 (concentration which causes 50% inhibition of the reaction at the receptor) and the EBDA/ligand programme calculates the dissociation constant Kd [nM] from this.

Series [3] can be described thus: Water solubility. In kind it is physicochemical.
For series [4], the system named is testosterone in the blood. The experiment in a line: Hormone-suppressive action: testosterone suppression in the healthy male rat. In kind it is in vivo. The procedure: To determine the suppression of testosterone in the blood of healthy male rats, the substance was injected subcutaneously into the right flank of the animals. The dosage was 1.5 mg/kg in the case of Example 1 and Example 2 and 10 mg/kg in the case of Example 56. To check the testosterone values, about 300 μl of blood were taken from the animals from the sublingual vein at the times 0, 2, 4, 8 (only Example 56), 24, 48, 72 and 96 hours, and then every 3 days until the end of suppression. […] Example 56 (10 mg/kg s.c.) suppressed the testosterone level in all 5 animals even after 2 hours and maintained this action for up to 8 hours. At the next measuring point (24 h), the testosterone values rose again (FIG. 6).

Series [5] deals with T1, human LH-RH receptor. The experiment in a line: Functional assay: inhibition of LH-RH-stimulated IP3 formation in cell clone L 3.5/78. In kind it is cell-based. Particulars: for IC50: stimulation with 10 nM LH-RH, estimated from dose-response curve. The procedure:
Method for the determination of IP3 (D-myo-[…]): a subconfluent culture of the cell clone (L 3.5/78) overexpressing the human LH-RH receptor is washed 1× with PBS, the cells are removed with PBS/EDTA and the cell suspension is pelletted. The cells are resuspended in incubation medium (Dulbecco's modified Eagle Medium with 4.5 g/l of glucose, 10 mM Hepes pH 7.5, 0.5% w:v BSA, 5 mM of LiCl, 1 g/l of bacitracin, 0.1 g/l of SBTI), aliquoted into 1.5 ml reaction vessels and preincubated at 37° C. for 30 min. 4×10^6 cells in a 500 μl volume are needed per measuring point. After the preincubation step, LH-RH (stock solution 0.5 mM in 10 mM tris pH 7.5, 1 mM dithiothreitol, 0.1% w:v BSA/Bachem Art # H4005) are added to the cell suspension at a final concentration of 10 nM. The action of an antagonist is tested by simultaneous addition at the corresponding concentration (for example 0.0316, 0.1, 0.316 etc. up to 100 nM for Example 2). As a negative control, cells without added LH-RH are incubated. After incubation at 37° C. for 15 min, IP3 formed is isolated from the cells by means of trichloroacetic acid (TCA) extraction. To this end, 500 μl of ice-cold 15% (w:v) TCA solution are added to the cell suspension. The resulting precipitate is pelletted by centrifugation at […] in the Heraeus Biofuge 15R centrifuge at 2000×g for 15 min. The supernatant of 950 μl is extracted 3× with 10 vol of cold, water-saturated diethyl ether in a 15 ml vessel standing on ice. After the last extraction step, the solution is adjusted to a pH of 7.5 with 0.5 M NaHCO3 solution.
The determination of the IP3 concentration in the cell extracts is carried out by means of a sensitive competitive binding test using an IP3 binding protein, labelled [^3 H]-IP3 and unlabelled IP3. To this end, an assay kit from Amersham (TRK 1000) is used; the determination is carried out as described in the assay protocol. After carrying out the various steps, 2 ml of scintillator for aqueous samples (Rotiszint Ecoplus) is finally added, the resuspended pellet containing the bound [^3 H]-IP3 is carefully mixed with it, and measured in a β-scintillation counter. The amount of cellular IP3 is calculated using a standard curve and a dose-response curve is set up. The IC50 can be estimated from the inflection point of this curve.

The mark [6] stands for this setting: [125I] Cetrorelix as ligand, single curves of FIG. 1, read-out: binding affinity as the dissociation constant Kd (competition curves of FIG. 1).
Setting [7] is: mean values from various experiments, number of experiments in brackets, read-out: Affinity human LH-RH receptor (dissociation constant Kd).
[8] abbreviates: 10 mg/kg s.c., healthy male rats, all 5 animals.

Turning to `CC(=O)N[C@H](Cc1ccc2ccccc2c1)C(=O)N[C@H](Cc1ccc(Cl)cc1)C(=O)N[C@H](Cc1cccnc1)C(=O)N[C@@H](CO)C(=O)N[C@@H](Cc1ccc(O)cc1)C(=O)N[C@H](CCCCNC(=O)C1CNC(=O)N1)C(=O)N[C@@H](CC(C)C)C(=O)N[C@@H](CCCNC(=N)N)C(=O)N1CCC[C@H]1C(=O)N[C@H](C)C(N)=O` (single isomer, unassigned) [Example 1, Ac-D-Nal(2)-D(pCl)Phe-D-Pal(3)-Ser-Tyr-D-[ε-N'-(imidazolidin-2-on-4-yl)formyl]-Lys-Leu-Arg-Pro-D-Ala-NH2], in series [1], the “(IC50) Histamine releage” value came out at 31.9 µg/mL. The Kd in series [2] (setting [6]) is 0.305 nM; in series [2] (setting [7]), 0.306 nM. Moreover, the “H2O Solubility” value in series [3] was 27 mg/mL.
Consider `CC(=O)N[C@H](Cc1ccc2ccccc2c1)C(=O)N[C@H](Cc1ccc(Cl)cc1)C(=O)N[C@H](Cc1cccnc1)C(=O)N[C@@H](CO)C(=O)N[C@@H](Cc1ccc(O)cc1)C(=O)N[C@H](CCCCNC(=O)C1CNC(=O)N1)C(=O)N[C@@H](CC(C)C)C(=O)N[C@@H](CCCNC(=N)N)C(=O)N1CCC[C@H]1C(=O)N[C@H](C)C(N)=O` (single isomer, unassigned) [Example 3], for which the Kd in series [2] (setting [7]) was 0.17 nM.
With `CC(=O)N[C@H](Cc1ccc2ccccc2c1)C(=O)N[C@H](Cc1ccc(Cl)cc1)C(=O)N[C@H](Cc1cccnc1)C(=O)N[C@@H](CO)C(=O)N[C@@H](Cc1ccc(O)cc1)C(=O)N[C@H](CCCNC(N)=O)C(=O)N[C@@H](CC(C)C)C(=O)N[C@@H](CCCNC(=N)N)C(=O)N1CCC[C@H]1C(=O)N[C@H](C)C(N)=O` [Cetrorelix, Ac-D-Nal(2)-D-p-Cl-Phe-D-Pal(3)-Ser-Tyr-D-Cit-Leu-Arg-Pro-D-Ala-NH2, reference compound] (Ac-[d2Nal][dPhe(4-Cl)][d3Pal]SY[dCit]LRP[dA]-NH2), the “(IC50) Histamine releage” value in series [1] was 9.7 µg/mL. Moreover, the “(1.5 mg/kg, single dose) testosterone suppression rats” value in series [4] (1.5 mg/kg, single dose, rats) amounted to 144 h. In addition, the values for the Kd in series [2] (setting [6]) and in series [2] (setting [7]) were 0.214 nM and 0.202 nM, respectively. Besides, the “H2O Solubility” value in series [3] was determined as 9 mg/mL.
For `CC(=O)N[C@H](Cc1ccc2ccccc2c1)C(=O)N[C@H](Cc1ccc(Cl)cc1)C(=O)N[C@H](Cc1cccnc1)C(=O)N[C@@H](CO)C(=O)N[C@@H](Cc1ccc(O)cc1)C(=O)N[C@H](CCCCNC(=O)CCC(=O)Nc1ccc(C(=N)N)cc1)C(=O)N[C@@H](CC(C)C)C(=O)N[C@@H](CCCNC(=N)N)C(=O)N1CCC[C@H]1C(=O)N[C@H](C)C(N)=O` [Example 2, Ac-D-Nal(2)-D(pCl)Phe-D-Pal(3)-Ser-Tyr-D-[ε-N'-4-(4-amidinophenyl)amino-1,4-dioxobutyl]-Lys-Leu-Arg-Pro-D-Ala-NH2] (Ac-[d2Nal][dPhe(4-Cl)][d3Pal]SY[dK]([Suc-NH(4-amidinophenyl)])LRP[dA]-NH2), the “(IC50) Histamine releage” value in series [1] is 17.1 µg/mL. In series [5], the IC50 was roughly 0.4 nM. Besides, the Kd in series [2] (setting [6]) turned out to be 0.104 nM; in series [2] (quoted in Example 84, read-out: in vitro binding affinity Kd, competitive binding test using [125I]-Cetrorelix) it was 0.109 nM. In addition, in series [3], the “H2O Solubility” value amounted to 23 mg/mL.
For the molecule `CC(=O)N[C@H](Cc1ccc2ccccc2c1)C(=O)N[C@H](Cc1ccc(Cl)cc1)C(=O)N[C@H](Cc1cccnc1)C(=O)N[C@@H](CO)C(=O)N[C@@H](Cc1ccc(O)cc1)C(=O)N[C@H](CCCCNC(=O)CCC(=O)Nc1ccc(C(=N)N)cc1)C(=O)N[C@@H](CC(C)C)C(=O)N[C@@H](CCCNC(=N)N)C(=O)N1CCC[C@H]1C(=O)N[C@H](C)C(N)=O` [Example 4] (Ac-[d2Nal][dPhe(4-Cl)][d3Pal]SY[dK]([Suc-NH(4-amidinophenyl)])LRP[dA]-NH2), the Kd in series [2] (setting [7]) was determined as 0.206 nM.
Consider `N=C(N)c1ccc(NC(=O)CCC(=O)NCCCCC(NC(=O)OCc2ccccc2)C(N)=O)cc1.O=C(O)C(F)(F)F` (stereo not shown) [Example 56], for which, in series [4] (setting [8]), the “duration of testosterone suppression” value is listed as “up to 8 hours” and the “time at which testosterone level was already suppressed” value was determined as 2 h. In addition, the “functional character at the LH-RH receptor” value in series [5] (10 nM LH-RH, IP3 formation) is on record as “functional antagonists of LH-RH”. For the same molecule, the IC50 in series [5] was roughly 4000 nM. The “agonistic activity (stimulation of IP3 synthesis by the substance itself)” value in series [5] (without LH-RH) is “not possible to determine any agonistic activity”. Moreover, the Kd in series [2] (setting [7]) amounted to 1080 nM.
